Where two headings read alike, the source gives them in different places.

These results are taken from US20230227466A1, “SUBSTITUTED THIENOPYRIMIDINES THAT INTERACT WITH THE RAS SUPERFAMILY FOR THE TREATMENT OF CANCERS, INFLAMMATORY DISEASES, RASOPATHIES, AND FIBROTIC DISEASE” (SHY Therapeutics, LLC, priority 2020, published 2023).

Test [1] deals with ERK1/2 phosphorylation in Panc-1 cells. Nature of the test: Western ERK1/2 cell-based phosphorylation assay. More on the design: species or system human. Particulars: at 10 μM, values in brackets < > are activation %, not inhibition. Put shortly:
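Western blot with anti-phospho-p44/42 (Thr202/Tyr204) measured ERK1/2 phosphorylation after 15 min EGF (1.5 ng/ml) stimulation. Beforehand, serum-starved (0.5% FBS, overnight) Panc-1 cells received compounds for 6 h at 37 °C, at 10 μM final in 0.3% DMSO or as dilution series for IC50.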

A further test has as its target Rho-A (Homo sapiens, UniProt P61586). Description: Ras GTP binding domain inhibition assay (labeled-GTP competition, cell-free). Details: made in house. The method, boiled down:
(§1)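 Immobilized His-tagged protein (Ni plate, 10-30 μg/mL, overnight 4° C); compound 20 μM or dilution series, 1% DMSO, 3 h RT, ±Sos 556-1049 last hour; Cy3/Cy5-GTP 100 nM, 45 min RT; 3× wash; bound fluorescence read.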

The next test concerns the target Rac-1 (Homo sapiens, UniProt P63000). Described as above. More on the design: made in house. Put shortly: as §1
A further test addresses KRas wild type (Homo sapiens, UniProt P01116). The description is as above. Details: made in house. Put shortly: as §1
Test [2] has as its system Akt phosphorylation in Panc-1 cells. Description: Western AKT cell-based phosphorylation assay. Details: species or system human. Particulars: at 10 μM, values in brackets < > are activation %, not inhibition. Put shortly:
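Phospho-Akt (Ser473) western blot of Panc-1 lysates, with Ponceau S to confirm uniform loading. Before lysis, cells were serum-starved overnight (0.5% FBS), incubated 6 h at 37° C with 10 μM compound in 0.3% DMSO and stimulated 15 min with 1.5 ng/ml EGF.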

[3] abbreviates: with SOS, read-out: Rho-A + SOS: % inh.
Where [4] appears, read: without SOS, read-out: Rho-A: % inh.
[5] abbreviates: with SOS, read-out: Rac-1 + SOS: % inh.
Where [6] appears, read: without SOS, read-out: Rac-1: % inh.
[7] abbreviates: with SOS, read-out: KRas wild type + SOS: % inh.
The mark [8] stands for this setting: without SOS, read-out: KRas wild type: % inh.

On to `CO[C@H]1C[C@@H](CNc2nc(-c3nccn3C)nc3sc(-c4ccn(C(C)C)n4)c(C)c23)C1` [Compound 47, 6-(1-Isopropyl-1H-pyrazol-3-yl)-N-(((1s,3s)-3-methoxycyclobutyl)methyl)-5-methyl-2-(1-methyl-1H-imidazol-2-yl)thieno[2,3-d]pyrimidin-4-amine], for which the “% inh of ERK1/2 phosphorylation in PANC-1” value in test [1] is “D (76-100% inhibition)”. Moreover, the inhibition at 20 µM at Rho-A (setting [3]) lay within 76 to 100%; at Rho-A (setting [4]), 76 to 100%; at Rac-1 (setting [5]) it was 51 to 75%; at Rac-1 (setting [6]) it was 51 to 75%; at KRas wild type (setting [7]) it was 76 to 100%; on KRas wild type (setting [8]) it was 76 to 100%. Also, the “% inh of AKT phosphorylation in PANC-1” value in test [2] was 0 (0% inhibition).
In the case of `CO[C@H]1C[C@H](CNc2nc(-c3nccn3C)nc3sc(-c4ccn(C(C)C)n4)c(C)c23)C1` [Compound 48, 6-(1-Isopropyl-1H-pyrazol-3-yl)-N-(((1r,3r)-3-methoxycyclobutyl)methyl)-5-methyl-2-(1-methyl-1H-imidazol-2-yl)thieno[2,3-d]pyrimidin-4-amine], the “% inh of ERK1/2 phosphorylation in PANC-1” value in test [1] was “D (76-100% inhibition)”. Besides, the inhibition at 20 µM at Rho-A (setting [3]) is 76 to 100%; on Rho-A (setting [4]) it was 51 to 75%; at Rac-1 (setting [5]), 26 to 50%; on Rac-1 (setting [6]), 26 to 50%; at KRas wild type (setting [7]), 51 to 75%; on KRas wild type (setting [8]), 76 to 100%. The “% inh of AKT phosphorylation in PANC-1” value in test [2] is reported as 0 (0% inhibition).
As to `CO[C@H]1CCCN(c2nc(-c3nccn3C)nc3sc(-c4ccn(C(C)C)n4)c(C)c23)C1` [Compound 49, (S)-6-(1-Isopropyl-1H-pyrazol-3-yl)-4-(3-methoxypiperidin-1-yl)-5-methyl-2-(1-methyl-1H-imidazol-2-yl)thieno[2,3-d]pyrimidine], the “% inh of ERK1/2 phosphorylation in PANC-1” value in test [1] is “D (76-100% inhibition)”. Moreover, the inhibition at 20 µM lay within 51 to 75% at Rho-A (setting [4]), 26 to 50% on Rac-1 (setting [6]), 76 to 100% at KRas wild type (setting [7]) and 51 to 75% on KRas wild type (setting [8]). Further, the “% inh of AKT phosphorylation in PANC-1” value in test [2] is given as “D (76-100% inhibition)”.
For `CO[C@@H]1CCCN(c2nc(-c3nccn3C)nc3sc(-c4ccn(C(C)C)n4)c(C)c23)C1` [Compound 50, (R)-6-(1-Isopropyl-1H-pyrazol-3-yl)-4-(3-methoxypiperidin-1-yl)-5-methyl-2-(1-methyl-1H-imidazol-2-yl)thieno[2,3-d]pyrimidine], the “% inh of ERK1/2 phosphorylation in PANC-1” value in test [1] was “D (76-100% inhibition)”. Besides, the inhibition at 20 µM on Rho-A (setting [4]) is 76 to 100%; on Rac-1 (setting [6]), 0%; on KRas wild type (setting [7]), 51 to 75%; on KRas wild type (setting [8]) it was 51 to 75%. Also, the “% inh of AKT phosphorylation in PANC-1” value in test [2] is recorded as “D (76-100% inhibition)”.
With `Cc1c(-c2ccn(C(C)C)n2)sc2nc(-c3nccn3C)nc(NC[C@@H]3CCC(=O)N3)c12` [Compound 51], the “% inh of ERK1/2 phosphorylation in PANC-1” value in test [1] is on record as 0 (0% inhibition). For the same compound, the inhibition at 20 µM on Rho-A (setting [4]) was in the range of 76 to 100%; on Rac-1 (setting [6]) it was 51 to 75%; on KRas wild type (setting [7]), 51 to 75%; at KRas wild type (setting [8]), 51 to 75%. Also, the “% inh of AKT phosphorylation in PANC-1” value in test [2] is on record as 0 (0% inhibition).
In the case of `Cc1c(-c2ccn(C(C)C)n2)sc2nc(-c3nccn3C)nc(NC[C@H]3CCC(=O)N3)c12` [Compound 52, (R)-5-(((6-(1-Isopropyl-1H-pyrazol-3-yl)-5-methyl-2-(1-methyl-1H-imidazol-2-yl)thieno[2,3-d]pyrimidin-4-yl)amino)methyl)pyrrolidin-2-one], the “% inh of ERK1/2 phosphorylation in PANC-1” value in test [1] was 0 (0% inhibition). For the same compound, the inhibition at 20 µM on Rho-A (setting [4]) was 76 to 100%; on Rac-1 (setting [6]), 51 to 75%; on KRas wild type (setting [7]), 51 to 75%; on KRas wild type (setting [8]), 51 to 75%. The “% inh of AKT phosphorylation in PANC-1” value in test [2] is given as 0 (0% inhibition).
